Measured values reported in US9833497B2, “Human originated EGF domain proteins and use of the same” (CHENGDU SOURCEBIO LIMITED-LIABILITY COMPANY, priority 2013, dated 2017).

Experiments:
Type in all cases: cell-based
[1] = system: Proteus mirabilis; assay: MIC against Gram-negative bacteria: Proteus mirabilis; settings: Proteus mirabilis; 96-well plate, 5×10^5 CFU/mL, 37° C., 10 h
Method: (§1) 1. Gram-negative bacteria, such as E. coli BL21, Pseudomonas aeruginosa, Klebsiella pneumonia, Enterobacter cloacae, Aeromonas hydrophila, Citrobacter diversus, Moraxella catarrhalis, Proteus mirabilis, Proteus vulgaris, Serratia marcescens, etc were streaked on solid LB medium and cultured respectively. Then, typical clones were picked, inoculated into common liquid LB medium respectively, and cultured at 37° C. with shaking at 185 rpm until the McFarland specific turbidity was 0.5. The bacterial culture of each of Gram-negative bacteria was centrifuged at 4000×g for 3 min, the supernatant was discarded, and the thalli were resuspended with fresh LB medium.
(§2) 2. The above-mentioned bacterial suspensions were diluted and inoculated into 96-well plates with the final concentration of the bacterial suspension being 5×10^5 CFU/mL per well.
(§3) 3. Each of the purified human-originated EGF domain proteins (PRT1 to PRT1498 in Table 1) was added to each of the above wells and subjected to two-fold serial dilution in concentration. Three parallel wells were set up for each concentration in the gradient.
(§4) 4. The above-mentioned 96-well plates were placed and cultured at 37° C. in shaking incubator shaking at 175 rpm. […] The minimal inhibitory concentration MIC is defined as the lowest concentration of the recombinant protein at which there is no growth of the bacteria.

[2] = system: Moraxella catarrhalis; assay: MIC against Gram-negative bacteria: Moraxella catarrhalis; settings: Moraxella catarrhalis; 96-well plate, 5×10^5 CFU/mL, 37° C., 10 h
Method: as §1, §2, §3, §4

[3] = system: Aeromonas hydrophila; assay: MIC against Gram-negative bacteria: Aeromonas hydrophila; settings: Aeromonas hydrophila; 96-well plate, 5×10^5 CFU/mL, 37° C., 10 h
Method: as §1, §2, §3, §4

[4] = system: E. coli BL21; assay: MIC against Gram-negative bacteria: E. coli BL21; settings: E. coli BL21; 96-well plate, 5×10^5 CFU/mL, 37° C., 10 h
Method: as §1, §2, §3, §4

[5] = system: Proteus vulgaris; assay: MIC against Gram-negative bacteria: Proteus vulgaris; settings: Proteus vulgaris; 96-well plate, 5×10^5 CFU/mL, 37° C., 10 h
Method: as §1, §2, §3, §4

[6] = system: Serratia marcescens; assay: MIC against Gram-negative bacteria: Serratia marcescens; settings: Serratia marcescens; 96-well plate, 5×10^5 CFU/mL, 37° C., 10 h
Method: as §1, §2, §3, §4

[7] = system: Enterobacter cloacae; assay: MIC against Gram-negative bacteria: Enterobacter cloacae; settings: Enterobacter cloacae; 96-well plate, 5×10^5 CFU/mL, 37° C., 10 h
Method: as §1, §2, §3, §4

[8] = system: Klebsiella pneumonia; assay: MIC against Gram-negative bacteria: Klebsiella pneumonia; settings: Klebsiella pneumonia; 96-well plate, 5×10^5 CFU/mL, 37° C., 10 h
Method: as §1, §2, §3, §4

[9] = system: Citrobacter diversus; assay: MIC against Gram-negative bacteria: Citrobacter diversus; settings: Citrobacter diversus; 96-well plate, 5×10^5 CFU/mL, 37° C., 10 h
Method: as §1, §2, §3, §4

[10] = system: Pseudomonas aeruginosa; assay: MIC against Gram-negative bacteria: Pseudomonas aeruginosa; settings: Pseudomonas aeruginosa; 96-well plate, 5×10^5 CFU/mL, 37° C., 10 h
Method: as §1, §2, §3, §4

[11] = system: E. coli DH5α; assay: Antibacterial activity: MIC and growth curve against E. coli DH5α in 96-well plate; settings: minimal inhibitory concentration against E. coli DH5α; 96-well plate, 5×10^5 CFU/mL, 37° C., judged after 8 h
Method: 1. E. coli DH5α was exemplified. E. coli DH5α was streaked and cultured on LB solid medium. Then, a typical clone was picked and inoculated into common LB liquid medium, cultured at 37° C. with shaking at 185 rpm until the logarithmic growth phase was reached (OD600 of about 0.5). The bacterial culture was centrifuged at 4000×g for 3 min, the supernatant was discarded, and the thalli were resuspended with fresh LB medium.
2. The above-mentioned bacterial suspension was diluted and inoculated into a 96-well plate with the total volume of 100 μL per well and a bacterial count of 5×10^5 CFU/mL.
3. The recombinant protein hF VII-EGF1 was added to the above-mentioned wells with the final protein concentration in the well of the highest protein concentration being 50 μg/mL. Basing on this final concentration, a two-fold serial dilution was performed till a protein concentration gradient consisting of 50, 25, and 12.5 μg/mL was set up. Three parallel wells were set up for each concentration in the gradient.
as §4, with “plate was” for “plates were”, “rpm. Samples were taken every 30 min, the absorbance values were determined at 600 nm wavelength under a ultra violet spectrophotometer, and an inhibition curve was plotted.” for “rpm.”
According to the experimental procedures in Example 14, the minimal inhibitory concentrations (MIC, μg/mL) of the other human-originated EGF domain proteins (PRT2 to PRT1498 in Table 1) for E. coli DH5α were determined.

Substance	MIC (μg/mL) P. mirabilis [1] [µg/mL]	MIC (μg/mL) M. catarrhalis [2] [µg/mL]	MIC (μg/mL) A. hydrophila [3] [µg/mL]	MIC (μg/mL) E. coli BL21 [4] [µg/mL]	MIC (μg/mL) P. vulgaris [5] [µg/mL]	MIC (μg/mL) S. marcescens [6] [µg/mL]	MIC (μg/mL) E. cloacae [7] [µg/mL]	MIC (μg/mL) K. pneumonia [8] [µg/mL]	MIC (μg/mL) C. diversus [9] [µg/mL]	MIC (μg/mL) P. aeruginosa [10] [µg/mL]	MIC [11] [µg/mL]
PRT32 (RCEAQKWGPECNHLCTACMNNGVCHEDTGECICPPGFMGRTCE; listed as Homo sapiens)	12.5	50	50	50	25	50	25	12.5	12.5	12.5	12.5
PRT33 (ACELHTFGRTCKERCSGQEGCKSYVFCLPDPYGCSCATGWKGLQCN; listed as Homo sapiens)	25	12.5	12.5	50	25	12.5	25	12.5	12.5	12.5	12.5
PRT34 (ACHPGFYGPDCKLRCSCNNGEMCDRFQGCLCSPGWQGLQCE; listed as Homo sapiens)	12.5	12.5	25	25	25	12.5	12.5	12.5	25	25	100
PRT35 (AMDLCARRLLDPCEHQCDPETGRREHRAAGECLCYEGYMKDPVHKHLCI; listed as Homo sapiens)	12.5	50	25	50	25	12.5	50	12.5	12.5	25	12.5
PRT36 (PVRDCSKDNGGCSKNFRCISDRKLDSTGCVCPSGLSPMKDSSGCY; listed as Homo sapiens)	25	25	25	25	12.5	25	25	12.5	50	12.5	12.5
PRT37 (IGVDCSDGFNGGCEQLCLQQMAPFPDDPTLYNILMFCGCIEDYKLGVDGRSCQ; listed as Homo sapiens)	12.5	12.5	12.5	50	25	12.5	12.5	25	25	25	25
PRT38 (VRDLCGQRTTDACEQLCDPETGECSCHEGYAPDPVHRHLCV; listed as Homo sapiens)	25	12.5	100	25	50	50	25	50	50	12.5	50
PRT39 (PVRDCSRNNGGCTRNFKCVSDRQVDSSGCVCPEELKPMKDGSGCY; listed as Homo sapiens)	25	12.5	50	25	12.5	12.5	25	50	50	50	50
PRT40 (KGIDCSDGFNGGCEQLCLQQTLPLPYDATSSTIFMFCGCVEEYKLAPDGKSCL; listed as Homo sapiens)	12.5	12.5	50	12.5	25	12.5	25	12.5	25	25	25
PRT41 (CDRPCVNGGRCNPGTGQCVCPAGWVGEQC; listed as Homo sapiens)	25	12.5	12.5	12.5	12.5	50	25	12.5	25	25	25
PRT42 (CQCNGHSKCINQSICEKCENLTTGKHCETCISGFYGDPTNGGKCQP; listed as Homo sapiens)	25	12.5	12.5	12.5	100	50	25	12.5	25	25	25
PRT43 (CKCNGHASLCNTNTGKCFCTTKGVKGDECQLCEVENRYQGNPLRGTCYY; listed as Homo sapiens)	12.5	25	25	25	25	12.5	12.5	25	12.5	12.5	12.5
PRT44 (LYAQVSQSKPCERTGSCFSGRCVNSTCLCDPGWVGDQCQ; listed as Homo sapiens)	50	25	25	12.5	25	12.5	12.5	12.5	12.5	25	12.5
